Tested on: orchidectomized murine model
Experiment: In vivo efficacy (BMD and BMC by qCT) in orchidectomized murine model
Design: species or system mice
Conditions: 5 μg/kg daily sc, two weeks
Protocol: Effects on bone mass density and bone mineral content, in vivo, are assessed using an orchidectomized murine model. Sixteen week old […] C57/B6 mice (Harlan, Indianapolis, Ind.) are orchidectomized (or vehicle control group, n=6) and maintained on a 12 hour light/dark cycle at 22° C. with ad lib access to food (TD 2014 with 0.72% Ca and 0.61% P, Vit. D 0.99 IU/g, Teklad, Madison, Wis.) and water. Osteopenia is established in the orchidectomized mice by allowing mice to lose bone mass for a six-week period.
Following a six-week osteopenia-establishing period, mice are divided into treatment groups and a vehicle PBS control group. […]
Bone mass density (BMD) of distal femur and bone mineral content (BMC) of lumbar vertebra are assessed by quantitative computed tomography (qCT) using Aloka LaTheta LTC-100 model CT scanner. […]

Compound: CC[C@H](C)[C@H](NC(=O)[C@H](CCC(=O)O)NC(=O)[C@H](CO)NC(=O)[C@@H](NC(=O)[C@@H](N)CO)C(C)C)C(=O)N[C@@H](CCC(N)=O)C(=O)N[C@@H](CC(C)C)C(=O)N[C@@H](CCSC)C(=O)N[C@@H](Cc1c[nH]cn1)C(=O)N[C@@H](CC(N)=O)C(=O)N[C@@H](CC(C)C)C(=O)NCC(=O)N[C@@H](CCCCN)C(=O)N[C@@H](Cc1c[nH]cn1)C(=O)N[C@@H](CC(C)C)C(=O)N[C@@H](CC(N)=O)C(=O)N[C@@H](CO)C(=O)N[C@@H](CCSC)C(=O)N[C@@H](CCC(=O)O)C(=O)N[C@@H](CCCNC(=N)N)C(=O)N[C@H](C(=O)N[C@@H](CCC(=O)O)C(=O)N[C@@H](Cc1c[nH]c2ccccc12)C(=O)N[C@@H](CC(C)C)C(=O)N[C@@H](CCCNC(=N)N)C(=O)N[C@@H](CCCCN)C(=O)N[C@@H](CCCCN)C(=O)N[C@@H](CC(C)C)C(=O)N[C@@H](CCC(N)=O)C(=O)N[C@@H](CC(=O)O)C(=O)N[C@H](C(=O)N[C@@H](Cc1c[nH]cn1)C(=O)N[C@@H](CC(N)=O)C(=O)N[C@@H](Cc1ccccc1)C(=O)N[C@H](C(=O)N[C@@H](C)C(=O)N[C@@H](CC(C)C)C(=O)NCC(=O)O)C(C)C)C(C)C)C(C)C [PTH Peptide, reference compound]
- Distal-Femur (% BMD change): 16%
- Lumbar Vertebra (% BMC change): 1%

— patent publication US11492386B2, “Parathyroid hormone-anti-RANKL antibody fusion compounds” (Eli Lilly and Company, priority 2016, dated 2022)
